The source of these data is ChEMBL document CHEMBL1128715, “Synthesis, resolution, and biological evaluation of the four stereoisomers of 4-methylglutamic acid: selective probes of kainate receptors” (J Med Chem, 1995).

This assay deals with Glutamate receptor ionotropic, NMDA 2C (Rattus norvegicus, UniProt Q00961). Briefly: Ability to inhibit [3H]CGS-19,755 binding to NMDA receptors.

A value given as a limit tells only on which side of the number the result lay.

Glutamate receptor ionotropic, NMDA 2C, sequence (Q00961 whole entry): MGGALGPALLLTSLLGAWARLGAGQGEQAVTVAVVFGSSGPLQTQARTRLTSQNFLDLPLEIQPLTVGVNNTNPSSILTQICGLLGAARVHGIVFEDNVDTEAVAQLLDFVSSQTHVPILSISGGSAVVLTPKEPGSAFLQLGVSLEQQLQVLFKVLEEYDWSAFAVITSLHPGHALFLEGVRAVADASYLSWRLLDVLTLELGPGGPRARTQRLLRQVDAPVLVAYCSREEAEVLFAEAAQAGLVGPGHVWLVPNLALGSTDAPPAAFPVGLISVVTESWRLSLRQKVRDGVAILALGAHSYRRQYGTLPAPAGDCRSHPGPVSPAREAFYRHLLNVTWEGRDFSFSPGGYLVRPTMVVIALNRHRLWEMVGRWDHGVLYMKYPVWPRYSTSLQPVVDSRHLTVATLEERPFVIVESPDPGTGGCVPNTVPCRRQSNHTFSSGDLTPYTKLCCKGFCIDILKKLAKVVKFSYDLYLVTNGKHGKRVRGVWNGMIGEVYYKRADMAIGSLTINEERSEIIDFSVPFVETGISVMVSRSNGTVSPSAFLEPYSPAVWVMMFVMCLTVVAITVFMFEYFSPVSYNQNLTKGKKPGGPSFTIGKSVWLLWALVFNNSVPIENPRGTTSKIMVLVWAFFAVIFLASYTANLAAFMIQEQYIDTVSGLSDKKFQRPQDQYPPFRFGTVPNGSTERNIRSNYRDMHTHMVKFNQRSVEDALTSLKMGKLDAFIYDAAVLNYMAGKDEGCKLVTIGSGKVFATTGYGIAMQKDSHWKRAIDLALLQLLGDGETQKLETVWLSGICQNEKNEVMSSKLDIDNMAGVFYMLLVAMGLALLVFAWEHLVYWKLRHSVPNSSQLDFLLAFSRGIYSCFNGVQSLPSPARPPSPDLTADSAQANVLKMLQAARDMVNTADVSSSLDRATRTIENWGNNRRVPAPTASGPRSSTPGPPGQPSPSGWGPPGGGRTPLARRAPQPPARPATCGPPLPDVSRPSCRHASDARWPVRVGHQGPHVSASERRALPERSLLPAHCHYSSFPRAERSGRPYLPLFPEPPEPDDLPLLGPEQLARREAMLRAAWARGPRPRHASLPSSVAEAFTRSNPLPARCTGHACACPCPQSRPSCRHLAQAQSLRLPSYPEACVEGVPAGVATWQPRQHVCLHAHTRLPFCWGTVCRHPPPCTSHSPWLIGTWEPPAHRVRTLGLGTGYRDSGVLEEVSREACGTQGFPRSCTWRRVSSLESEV

With `C[C@H](C[C@H](N)C(=O)O)C(=O)O` [2S,4R-4-METHYLGLUTAMATE], the IC50 is more than 7 µM.

The IC50 is the concentration that inhibits the measured activity by half. High values mean a need for much substance, low ones inhibition by little substance.
